The values below come from patent US20160038549A1, “METHOD FOR PROMOTING INSULIN SECRETION BY USING COMPOUNDS AND EXTRACTS ISOLATED FROM ANTRODIA CAMPHORATA” (priority 2014, published 2016).

In assay [1] the test system is MIN6 mouse beta insulinoma cell line. Kind of assay: MTT cell viability assay with thapsigargin (TG) challenge. The conditions noted are these: then TG. In kind it is cell-based. The method, then: MIN6 mouse beta insulinoma cell line was analyzed by MTT cell viability assay respectively. The MIN6 mouse insulinoma beta cell line is an insulinoma cell line which comes from sarcoma virus 40 transfecting non-obese diabetic mice (NOD mice) by T cells, and is a mouse insulinoma cell line having physiological characteristics of insulinoma beta cell.
MIN6 cell line was cultured in a high glucose DMEM with 15% fetal bovine serum, 50 μmol/L mercaptoethanol, 100 U/ml penicillin, and […] streptomycin. The medium was replaced the next day.
MIN6 cells were prepared for 1×10^5/ml cell liquid suspensions, and then the suspensions were incubated in a 96-well plate with 100 μl in each well. After cell attachment, the medium was replaced with a 0.2% serum medium and then the cells were cultured for 24 hours in order to keep the cells at rest. Then, 200 mg/L BSA medium and the extracts/compounds from Antrodia camphorata with a variety of predetermined concentrations (experimental groups) were added to react for 24 hours, respectively, and then thapsigargin was added to react for 24 hours. A control group was prepared by adding 100 μl medium and then incubating in a constant temperature incubator at 37° C., 5% CO2 for a period of time. 4 hours before the end of the incubating process, 20 μl MTT (0.5 mg/ml) was added into each well, the samples continued being incubated for 4 hours, and then crystalline dissolved fully with vibration. The absorbance (A) at wavelength of 570 nm was determined respectively by a reader. Then the cell viability was calculated by the following formula: the cell viability=(the average of A570 in the experimental group/the average of A570 in the control group)×100%.
Referring to FIG. 1A, the extraction from ANCA-D in different concentrations (6.25, 12.5, 25, 50, 100 ng/ml) was added into cells in each group respectively to react for 24 hours. Then, thapsigargin (TG) was added to react for 24 hours and the cell viability of each group was determined after the reaction. Thapsigargin is an endoplasmic reticulum calcium pump inhibitor which can promote depletion of calcium ions from the endoplasmic reticulum and then open store-operated channels to lead the calcium ions to increase in cells. Then, insulin secretion could be inhibited.
A general note: Tetrazolium assays rely on reduction of a dye to a coloured formazan, in cell work by metabolically active cells.

The test system of assay [2] is MIN6 cell. Kind of assay: Glucose-stimulated insulin secretion (GSIS) assay, insulin by ELISA. It is filed as cell-based, mouse. The method, then:
In order to examine the influences of the aforementioned extracts and compounds from Antrodia camphorata for insulin secretion, GSIS assay was performed with MIN6 cell. First, MIN6 cell was incubated in 1×10^5/ml concentration in a 24-well plate and a 15% FBS DMEM medium at 37° C., 5% CO2. After cell attachment, 200 mg/1 BSA medium and the extracts and compounds from Antrodia camphorata in different concentrations were added into each well to react for 24 hours. 5.5 mM/16.7 mM glucose was further added as stimulation and then insulin was determined by ELISA. In the same time, total cellular protein in each well was extracted for a calibration by determining protein concentration with BCA assay.
(ELISA stands for enzyme-linked immunosorbent assay.)

In the case of `COC1=C(OC)[C@H](O)[C@H](C/C=C(\C)CC/C=C(\C)CC(O)C=C(C)C)[C@@H](C)C1=O` (stereo partly shown) [Antrocamol LT1, 4-hydroxy-5-[9-hydroxy-3,7,11-trimethyldodeca-2,6,10-trienyl]-2,3-dimethoxy-6-methyl-cyclohex-2-enone], the MIN6 cell viability result in assay [1] (concentrations of 250, 500, and 1000 ng/ml, compared with only-TG control, FIG. 2A) was “increasing tendency was more significant”; in assay [1] (pretreated with compound, compared with only-TG control, overall, FIG. 2A), “could increase the MIN6 cell viability”. The “insulin secretion relative to control group” value in assay [2] (pretreated with 500 ng/ml, higher glucose concentration 16.7 mM, FIG. 3C) is reported as “about 2 times”. In addition, the insulin secretion result is recorded as “slightly increased” in assay [2] (pretreated with 500 ng/ml, lower glucose concentration 5.5 mM, FIG. 3C); “slightly increasing tendency” in assay [2] (pretreated with 1000 ng/ml and 500 ng/ml, 5.5 mM/16.7 mM glucose, FIG. 3B); “more obvious” in assay [2] (pretreated with 1000 ng/ml, higher glucose concentration 16.7 mM, FIG. 3C); “increasing tendency” in assay [2] (pretreated with 1000 ng/ml, lower glucose concentration 5.5 mM, FIG. 3C).

For `COC1=C(OC)[C@H](OC(C)=O)[C@H](C/C=C(\C)CC/C=C(\C)CC(O)C=C(C)C)[C@@H](C)C1=O` (stereo partly shown) [Antrocamol LT2, 4-acetoxy-5-[9-hydroxy-3,7,11-trimethyldodeca-2,6,10-trienyl]-2,3-dimethoxy-6-methyl-cyclohex-2-enone], the MIN6 cell viability result is on record as “began to slightly decrease” in assay [1] (concentration higher than 50 ng/ml, FIG. 2B) and “significantly increase the MIN6 cell viability” in assay [1] (lower concentrations, especially 6.25~25 ng/ml, compared with only-TG control, FIG. 2B). For the same compound, the “effect of promoting insulin secretion” value in assay [2] (pretreated with 50 ng/ml, FIG. 3B) is on record as “not observed”. For the same compound, the “insulin secretion relative to control group” value in assay [2] (pretreated with 100 ng/ml, 5.5 mM/16.7 mM glucose, FIG. 3B) is reported as “about 2 times”.

For `COC1=C(OC)[C@H](O)[C@H](C/C=C(\C)CC/C=C(\C)C/C=C/C(C)(C)O)[C@@H](C)C1=O` [Antrocamol LT3, (4R,5R,6R)-4-hydroxy-5-[(2E,6E,9E)-11-hydroxy-3,7,11-trimethyldodeca-2,6,9-trienyl]-2,3-dimethoxy-6-methylcyclohex-2-enone], the MIN6 cell viability result in assay [1] (concentration of 1000 ng/ml, FIG. 2C) was “began increasing”; in assay [1] (concentrations lower than 500 ng/ml, compared with only-TG group, FIG. 2C), “did not significantly influence the MIN6 cell viability”. The “effect for promoting insulin secretion” value is recorded as “observed in high glucose” in assay [2] (high glucose, FIG. 3B) and “not low glucose” in assay [2] (low glucose, FIG. 3B). Moreover, the insulin secretion result in assay [2] (pretreated with 250 ng/ml, 5.5 mM/16.7 mM glucose, FIG. 3B) is “slightly tendency for promoting insulin secretion”.
